Data on four compounds can be found in patent US20170216295A1, “CCR9 ANTAGONIST COMPOUNDS” (Merck Sharp & Dohme Corp., priority 2014, published 2017).

Converted amounts (≈) assume the structure as drawn. Read-outs that look alike come from different tables or passages of the source. Where only a bound is given, the exact number is not on record here.

Series [1] has as its target T1, CCR9 receptor (Homo sapiens, UniProt P51686).
T1 sequence (P51686 1-369): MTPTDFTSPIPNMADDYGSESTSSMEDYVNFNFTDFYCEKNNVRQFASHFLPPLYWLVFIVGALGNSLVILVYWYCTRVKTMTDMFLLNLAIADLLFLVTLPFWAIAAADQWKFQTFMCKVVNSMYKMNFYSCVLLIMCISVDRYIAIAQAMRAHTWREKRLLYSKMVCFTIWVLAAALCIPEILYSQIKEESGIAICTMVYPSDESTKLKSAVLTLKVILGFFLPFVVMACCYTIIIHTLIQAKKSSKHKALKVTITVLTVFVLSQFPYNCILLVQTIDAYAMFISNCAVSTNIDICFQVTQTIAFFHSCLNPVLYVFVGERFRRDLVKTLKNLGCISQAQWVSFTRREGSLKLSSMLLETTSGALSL
Put plainly: Calcium mobilization (Ca FLIPR) assay, antagonist mode vs TECK. The note with it: for LipE: LipE = pIC50-clogD; for IC50: cells expressing CCR9, TECK at EC80 0.01 uM, read-out: CCR9 Ca2+ IC50. The series is classed as cell-based. How it is done:
Calcium Mobilization Assay:
Cells expressing CCR9 receptor (MultiSpan, Hayward, Calif.) were seeded in 384-well plates. Ca^2+ assays were conducted after overnight culture in the plates according to the manufacturer's protocol using Screen Quest™ Fluo-8 no wash kit (AAT Bioquest, Sunnyvale, Calif.). Dye loading buffer was added to the cells and incubated for 45 minutes at 37° C. followed by 15 minutes incubation at room temperature. Compounds in the presence of 0.1% DMSO were applied to the cells during calcium flux measurement. Calcium flux was monitored for 90 seconds with compound application after 10 seconds. For antagonist mode, cells were preincubated with the compound at room temperature for 10 minutes before the application of the control agonist TECK (Preprotech, Rocky Hill, N.J.) at EC80 concentration of 0.01 uM obtained from dose-response curves of control agonist.
Background: Calcium assays in cells follow changes in intracellular calcium, usually with a dye or a luminescent sensor.

Series [2] in a line: Rat liver microsome clearance. The series is classed as in vitro ADME. The settings on record: for CLint scaled at 2 μM: rat liver microsomes, 1 mg/mL rat hepatic microsomes, NADPH, read-out: Rat Microsome In Vitro CLint; for RLM CL (rat liver microsome hepatic clearance): first value of RLM/HLM cell. The protocol:
Microsomal In-Vitro Clearance:
The test articles (2 μM) were incubated for one hour in 1 mg/mL rat hepatic microsomes with 2 mM NADPH at 37° C. with aliquots removed at t=0, 15, 30 and 60 minutes. Incubations were terminated at the specified times by protein precipitation, and samples were centrifuged. Resultant supernants were analyzed by LC-MS/MS for the amount of incubated compound remaining, and the half life (t1/2) and intrinsic microsomal clearance rate (CLint) of each compound was calculated.
For orientation: Microsomes from liver hold many membrane-bound enzymes, among them those of drug oxidation.

The nature of series [3]: pH-solubility (high-throughput, buffers). The series is classed as physicochemical. The note with it: for solubility at 24 h: aqueous with cosolvent or surfactant or cyclodextrin, kinetic from dmso stock; for Sol. pH 4: 1000 ug compound in 1 mL pH 4 buffer; for Sol. pH 7: 1000 ug compound in 1 mL pH 7 buffer; for Sol. pH 9: 1000 ug compound in 1 mL pH 9 buffer. The protocol:
Solubility of representative acidic triazoles was measured in 3 buffer systems (pH 4, 7.4 and 9) using an in-house high-throughput solubility method. A stock solution of test article was prepared in DMA (20 mg/ml) and spiked into each buffer system (20× dilution) to target 1 mg/ml concentration. The samples were vortexed briefly and equilibrated for 24 hr at RT. Samples were then filtered using 0.22u PVDF membrane filters and analyzed for drug concentration using HPLC.

A short description of series [4]: In-vitro precipitation time in simulated gastric and intestinal fluids. Type of series: physicochemical. The note with it: oral dosing solution. How it is done:
Dosing solutions at 1 mg/mL for rat PK studies were prepared using either a pH+co-solvent approach or pH+cosolvent+surfactant approach. The total amounts of cosolvent and surfactant used in the solution formulations ranged from 5-8% v/v and q.s. with pH 9 phosphate buffer. Solutions were assessed for their potential for in-vivo precipitation using an in-vitro dilution test (1:1, 1:4 and 1:9) in simulated gastric and intestinal fluids.

Series [5] is described as follows: Rat PK (i.v./p.o.). The series is classed as in vivo. The note with it: for clearance: iv, read-out: Rat In vivo CL. How it is done:
Sprague Dawley Rats (n=3) were dosed both intravenously and orally with a solution formulation followed by plasma collection at time points providing sufficient coverage of the absorption, distribution, metabolism and excretion phases of the test article. Test article concentrations at each time point were determined by LC-MS detected bioanalytical analysis. Non-compartmental pharmacokinetic analysis of the intravenous bioanalytical data provided area under the curve, clearance, volume of distribution, and terminal half life parameters while similar analysis of plasma samples from animals dosed orally provided area under the curve, bio-available fraction and oral terminal half life pharmacokinetic parameters.
Rats (n of 3) were dosed both intravenously and orally with the various compounds. Plasma samples were collected at time points chosen to provide sufficient coverage of the absorption, distribution, metabolism and excretion phases of the test compound. LC-MS detected bioanalytical analysis was performed on the plasma samples utilizing a standard curve and quality control samples to provide enough precision and accuracy to determine the concentrations test article for plasma from each time point. Non-compartmental pharmacokinetic analysis of the intravenous bioanalytical data provided area under the curve, clearance, volume of distribution, terminal half life parameters while similar analysis of plasma samples from animals dosed orally provided area under the curve, bio-available fraction and oral terminal half life pharmacokinetic parameters (see FIG. 1).

The nature of series [6]: Rat plasma protein binding (equilibrium dialysis). The series is classed as in vitro ADME. The note with it: read-out: Rat Plasma Protein Binding (PPB) Fu. The protocol:
(§1) Plasma and Microsome Protein Binding:
(§2) Protein binding was measured via high throughput equilibrium dialysis with the HTDialysis device fitted with a 12,000 to 14,000 Da molecular weight cutoff membrane. Rat plasma or 1 mg/mL rat hepatic microsomes spiked with test article were dialyzed vs. phosphate buffer for 6 hours. Aliquots were removed from both sides of the membrane and diluted with equal volumes of the opposite matrix. Following protein precipitation and centrifugation, the resultant matrix matched supernatants were analyzed by LC-MS to compare the plasma or microsome dialysate test article signal to the buffer signal. Test article stability was monitored during the course of the assay.
(In general: Equilibrium dialysis compares concentrations on both sides of a semipermeable membrane.)

A short description of series [7]: Rat microsome protein binding (equilibrium dialysis). Type of series: in vitro ADME. The note with it: rat liver microsomes, 1 mg/mL rat hepatic microsomes, read-out: Rat Microsomal Binding Fu. How it is done:
as §1, §2

The test system of series [8] is Molt-4 cells. Put plainly: Chemotaxis assay of Molt-4 cells towards TECK. The settings on record: Homo sapiens; Molt-4 cells in HBSS buffer with 0.1% BSA; TECK at EC80. The series is classed as cell-based. The protocol: Molt-4 cells were harvested and re-suspended in HBSS buffer with 0.1% BSA or in 100% human serum. Cell suspensions were mixed with compound solutions for 10 min and then seeded onto the upper chamber of the ChemoTX chemotaxis plates with 5 μm pore size polycarbonate membrane from NeuroProbe (Gaithersburg, Md.). EC80 concentration of TECK was applied in the bottom chamber. After 2 hours of incubation at 37° C., the assay was terminated by removing the upper chamber. The cells migrated into the bottom chamber were quantified with CyQUANT solution from Invitrogen (Grand Island, N.Y.).

Series [9] can be described thus: Human liver microsome clearance. Type of series: in vitro ADME. The settings on record: second value of RLM/HLM cell.

What is called solubility is the concentration that dissolves in the medium under given conditions. On to `Cc1nc2ncnn2c(O)c1Cc1ccc(C(C)(C)C)cc1` [Compound 6], for which the LipE in series [1] is 2.4. The CLint scaled at 2 μM in series [2] came to 717 mL/min/kg. Moreover, the solubility at 24 h in [3] (pH 4 buffer, pH 4 (Table 6), read-out: Solubility pH 4) came out at 13 µg/mL (≈ 43.9 µM); in series [3] (pH 7.4 buffer, pH 7.4 (Table 6), read-out: Solubility pH 7.4), 140 µg/mL (≈ 472 µM); in [3] (pH 9 buffer, pH 9 (Table 6), read-out: Solubility pH 9), 1000 µg/mL (≈ 3370 µM). In addition, the “In-vitro Precipitation Time (Visual assessment), SGF” value in series [4] (simulated gastric fluid) is “SGF: 0 min”. Also, in [4] (simulated intestinal fluid), the “In-vitro Precipitation Time (Visual assessment), SIF” value is listed as “SIF: 120 min”. Further, the “Rat In vivo CL as % Hepatic Blood Flow” value in [5] stood at 44%. The clearance in [5] (Sprague Dawley, plasma) stood at 24 mL/min/kg. In series [5] (Sprague Dawley, plasma, oral, 6: co-solvent (pH 9), 39, 40, 42: co-solvent + surfactant (pH 9), read-out: % F (p.o.)), the bioavailability was determined as 12%. In series [5] (oral, formulation as in Table 6), the “Oral AUC/D” value is listed as 0.08 ug · hr/ml/(mg/kg). The fraction unbound at 6 h worked out at 0.01 in series [6] and 0.703 in [7].

By IC50 is commonly meant the concentration needed to halve the response being measured. Take `COCc1nc2ncnn2c(O)c1Cc1ccc(C(C)(C)C)cc1` [Compound 26]: the IC50 in series [1] stood at 8 nM. In series [8], the IC50 came to 42 nM. Also, in series [2], the “RLM CL (rat liver microsome hepatic clearance)” value (shortened to “RLM CL”) came out at 48 mL/min/kg and the CLint scaled at 2 μM was determined as 373 mL/min/kg. In addition, the “HLM CL (human liver microsome hepatic clearance)” value (“HLM CL” below) in series [9] is recorded as 8 mL/min/kg. Further, in series [3], the “Sol. pH 4” value is 3 ug/mL, the “Sol. pH 7” value is 135 ug/mL and the “Sol. pH 9” value is reported as greater than 1000 ug/mL. Further, the “Rat In vivo CL as % Hepatic Blood Flow” value in [5] came out at 10%. For the same compound, the clearance in series [5] (Sprague Dawley, plasma) was 5 mL/min/kg. In series [6], the fraction unbound at 6 h was 0.01. The fraction unbound at 6 h in series [7] came out at 0.85.

`CC(C)(C)c1ccc(Cc2c(C3CCC3)nc3ncnn3c2O)cc1` [Compound 27]: in series [1], the IC50 was 5 nM. For the same compound, the IC50 in series [8] came to 20 nM. Further, in series [2], the “RLM CL” value is on record as 37 mL/min/kg and the CLint scaled at 2 μM is 111 mL/min/kg. Also, the “HLM CL” value in series [9] turned out to be 13 mL/min/kg. Moreover, in series [3], the “Sol. pH 4” value stood at 4 ug/mL, the “Sol. pH 7” value was determined as 58 ug/mL and the “Sol. pH 9” value is given as 910 ug/mL. Also, the “Rat In vivo CL as % Hepatic Blood Flow” value in series [5] is reported as 32%. Besides, the clearance in series [5] (Sprague Dawley, plasma) came to 17 mL/min/kg. For the same compound, the fraction unbound at 6 h in series [6] stood at 0.01. Further, the fraction unbound at 6 h in [7] turned out to be 0.255.

With `CCc1nc2ncnn2c(O)c1Cc1ccc(C(C)(C)C#N)cc1` [Compound 37], in series [1], the LipE came to 5.6 and the half-inhibitory concentration (IC50) was 64 nM. The IC50 in [8] was found to be 500 nM. Besides, in series [2], the “metabolic stability (in words)” value is given as “increased”, the “RLM CL” value is listed as 7 mL/min/kg and the CLint scaled at 2 μM was determined as 8 mL/min/kg. Besides, the “HLM CL” value in series [9] amounted to 1 mL/min/kg. In [3], the “Sol. pH 4” value was greater than 1000 ug/mL, the “Sol. pH 7” value was found to be 994 ug/mL and the “Sol. pH 9” value was found to be 982 ug/mL. In series [5], the “Rat In vivo CL as % Hepatic Blood Flow” value was 3%, the “Vd (in words)” value was “increased”, the “exposure (in words)” value was “highest exposure for the series” and the “half-life (in words)” value is on record as “extended”. Besides, in [5], the “in vivo CL (in words)” value was “lower”. Besides, the clearance in series [5] (Sprague Dawley, plasma) worked out at 1 mL/min/kg. Besides, the fraction unbound at 6 h in series [6] was 0.011. In addition, in series [7], the fraction unbound at 6 h came to 0.85.
